Data published in patent US11529338B2, “Compositions and methods for treating cancer” (Cedars-Sinai Medical Center, priority 2017, dated 2022).

Molecular target: T1, OC2-HOX (Homo sapiens, UniProt O95948)
T1 sequence (O95948 426-485 limits assumed): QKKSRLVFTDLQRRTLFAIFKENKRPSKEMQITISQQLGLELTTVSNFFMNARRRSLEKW
Assay: Binding to OC2-HOX measured by surface plasmon resonance
Conditions: based on 2:2 Langmuir model simulation of the bimolecular interactions, read-out: binding affinity KD
Text: FIG. 12A-FIG. 12C depicts in accordance with various embodiments of the invention, CSRM617 derivatives. FIG. 12A depicts chemical structures of CSRM617 derivatives CSRM123 and CSRM843. FIG. 12B depicts dose-dependent binding of CSRM123 and CSRM843 to OC2-HOX, measured by surface plasmon resonance, is shown. […] FIG. 12C depicts IC50 values for compounds CSRM617, CSRM123 and CSRM843 in 22Rv1 and DU145 cell lines.

Row | Structure (SMILES) | Kd
1 | NC(=O)C1CCCCN1C(=O)NCCc1ccc(O)c(O)c1O (centres unmarked) [CSRM123] | 1150 nM
2 | O=C(CNC(=O)Cc1ccc(O)c(O)c1O)NO [CSRM843] | 118 nM
